According to US9695155B2, “Herbicidal substituted pyrimidinyloxy benzene compounds” (E. I. DU PONT DE NEMOURS AND COMPANY, priority 2013, dated 2017):

What was measured:
kochia [1] = test: Test A postemergence; type: in vivo, Kochia scoparia
Method in brief: (§1)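 Compounds in non-phytotoxic solvent with surfactant applied as soil spray preemergence, or postemergence to plants 2-10 cm at one- to two-leaf stage, in loam/sand. After approximately 10 days in greenhouse, injury rated visually versus untreated controls, 0 (no effect) to 100 (complete control).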

ragweed [2] = test: Test A postemergence; type: in vivo, Ambrosia elatior; conditions: for Plant response rating, Ragweed: 31 g ai/ha, 0 to 100 scale, 0 no effect, 100 complete control
Method in brief: as §1

sedge, umbrella = test: Test B flooded paddy test; type: in vivo, Cyperus difformis; conditions: Flood, 250 g ai/ha; 0 to 100 scale where 0 is no effect and 100 is complete control
Method in brief: (§2)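 Post-emergence paddy-water application at the 2-leaf stage, with 3 cm flood kept for the whole test. Response was judged visually relative to controls after 13 to 15 greenhouse days, 0 indicating no effect and 100 complete control.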

pigweed [3] = test: Test A postemergence; type: in vivo, Amaranthus retroflexus; conditions: for Plant response rating, Pigweed: 31 g ai/ha, 0 to 100 scale, 0 no effect, 100 complete control
Method in brief: as §1

barnyardgrass [4] = test: Test A postemergence; type: in vivo, Echinochloa crus-galli
Method in brief: as §1

Italian ryegrass [5] = test: Test A preemergence; type: in vivo, Lolium multiflorum; conditions: for Ryegrass, Italian plant response rating (0 to 100 scale): 31 g ai/ha; for Plant response rating, Ryegrass, Italian: 125 g ai/ha, 0 to 100 scale where 0 is no effect and 100 is complete control
Method in brief: as §1

Italian ryegrass [6] = test: Test A postemergence; type: in vivo, Lolium multiflorum; conditions: for Plant response rating, Ryegrass, Italian: 31 g ai/ha, 0 to 100 scale, 0 no effect, 100 complete control
Method in brief: as §1

barnyardgrass [7] = test: Test A preemergence; type: in vivo, Echinochloa crus-galli; conditions: for Barnyardgrass plant response rating (0 to 100 scale): 31 g ai/ha; for Plant response rating, Barnyardgrass: 125 g ai/ha, 0 to 100 scale where 0 is no effect and 100 is complete control
Method in brief: as §1

pigweed [8] = test: Test A preemergence; type: in vivo, Amaranthus retroflexus; conditions: for Pigweed plant response rating (0 to 100 scale): 31 g ai/ha; for Plant response rating, Pigweed: 125 g ai/ha, 0 to 100 scale where 0 is no effect and 100 is complete control
Method in brief: as §1

giant foxtail [9] = test: Test A postemergence; type: in vivo, Setaria faberii
Method in brief: as §1

ragweed [10] = test: Test A preemergence; type: in vivo, Ambrosia elatior; conditions: for Ragweed plant response rating (0 to 100 scale): 31 g ai/ha; for Plant response rating, Ragweed: 125 g ai/ha, 0 to 100 scale where 0 is no effect and 100 is complete control
Method in brief: as §1

giant foxtail [11] = test: Test A preemergence; type: in vivo, Setaria faberii; conditions: for Foxtail, Giant plant response rating (0 to 100 scale): 31 g ai/ha; for Plant response rating, Foxtail, Giant: 125 g ai/ha, 0 to 100 scale where 0 is no effect and 100 is complete control
Method in brief: as §1

wheat = test: Test A postemergence; type: in vivo, Triticum aestivum; conditions: for Plant response rating, Wheat: 31 g ai/ha, 0 to 100 scale, 0 no effect, 100 complete control
Method in brief: as §1

corn = test: Test A postemergence; type: in vivo, Zea mays
Method in brief: as §1

kochia [12] = test: Test A preemergence; type: in vivo, Kochia scoparia; conditions: for Kochia plant response rating (0 to 100 scale): 31 g ai/ha; for Plant response rating, Kochia: 125 g ai/ha, 0 to 100 scale where 0 is no effect and 100 is complete control
Method in brief: as §1

rice = test: Test B flooded paddy test; type: in vivo, Oryza sativa; conditions: Flood, 250 g ai/ha; 0 to 100 scale where 0 is no effect and 100 is complete control
Method in brief: as §2

blackgrass = test: Test A postemergence; type: in vivo, Alopecurus myosuroides
Method in brief: as §1

galium = test: Test A postemergence; type: in vivo, Galium aparine
Method in brief: as §1

barnyardgrass [13] = test: Test B flooded paddy test; type: in vivo, Echinochloa crus-galli; conditions: Flood, 250 g ai/ha; 0 to 100 scale where 0 is no effect and 100 is complete control
Method in brief: as §2

Heteranthera limosa = test: Test B flooded paddy test; type: in vivo; conditions: Flood, 250 g ai/ha; 0 to 100 scale where 0 is no effect and 100 is complete control
Method in brief: as §2

[14] = 31 g ai/ha, 0 to 100 scale, 0 no effect, 100 complete control
[15] = 125 g ai/ha, 0 to 100 scale where 0 is no effect and 100 is complete control

SMILES | Plant response rating, Kochia (kochia [1]; [14]) | Plant response rating, Ragweed (ragweed [2]) | Plant response rating, Sedge, Umbrella (sedge, umbrella) | Plant response rating, Pigweed (pigweed [3]) | Plant response rating, Barnyardgrass (barnyardgrass [4]; [14]) | Ryegrass, Italian plant response rating (0 to 100 scale) (Italian ryegrass [5]) | Plant response rating, Ryegrass, Italian (Italian ryegrass [5]) | Plant response rating, Ryegrass, Italian (Italian ryegrass [6]) | Barnyardgrass plant response rating (0 to 100 scale) (barnyardgrass [7]) | Plant response rating, Barnyardgrass (barnyardgrass [7]) | Pigweed plant response rating (0 to 100 scale) (pigweed [8]) | Plant response rating, Pigweed (pigweed [8]) | Plant response rating, Foxtail, Giant (giant foxtail [9]; [14]) | Ragweed plant response rating (0 to 100 scale) (ragweed [10]) | Plant response rating, Ragweed (ragweed [10]) | Foxtail, Giant plant response rating (0 to 100 scale) (giant foxtail [11]) | Plant response rating, Foxtail, Giant (giant foxtail [11]) | Plant response rating, Wheat (wheat) | Plant response rating, Corn (corn; [14]) | Kochia plant response rating (0 to 100 scale) (kochia [12]) | further results
CCCOc1cnn(-c2c(F)cccc2Oc2ncc(Cl)cn2)c1 [Compound 127] | 0 | 0 | 0 | 20 | 0 | 0 | 0 | 0 | 0 | 40 | 0 | 10 | 0 | 0 | 0 | 10 | 60 | 0 | 0 | 0 | Kochia plant response rating (kochia [1]; [15]): 30; Ragweed plant response rating (ragweed [2]; [15]): 10; Pigweed plant response rating (pigweed [3]; [15]): 30; Barnyardgrass plant response rating (barnyardgrass [4]; [15]): 10; Ryegrass, Italian plant response rating (Italian ryegrass [6]; [15]): 0; Foxtail, Giant plant response rating (giant foxtail [9]; [15]): 20; Wheat plant response rating (wheat; [15]): 0; Corn plant response rating (corn; [15]): 10; Plant response rating, Kochia (kochia [12]): 0; Plant response rating, Rice (rice): 0; Plant response rating, Blackgrass (blackgrass; [14]): 0; Blackgrass plant response rating (blackgrass; [15]): 10; Plant response rating, Galium (galium; [14]): 10; Galium plant response rating (galium; [15]): 20; Plant response rating, Barnyardgrass (barnyardgrass [13]): 0; Plant response rating, Ducksalad (Heteranthera limosa): 60
FCCc1cn(-c2c(F)cccc2Oc2ncc(Cl)cn2)nn1 [Compound 108] | 70 | 20 | 80 | 50 | 20 | 0 | 30 | 0 | 10 | 70 | 90 | 100 | 20 | 70 | 80 | 20 | 90 | 10 | 20 | 40 | Plant response rating, Kochia (kochia [1]; [15]): 90; Plant response rating, Barnyardgrass (barnyardgrass [4]; [15]): 60; Plant response rating, Foxtail, Giant (giant foxtail [9]; [15]): 70; Plant response rating, Corn (corn; [15]): 30; Plant response rating, Kochia (kochia [12]): 70; Plant response rating, Rice (rice): 35; Plant response rating, Blackgrass (blackgrass; [14]): 30; Plant response rating, Blackgrass (blackgrass; [15]): 80; Plant response rating, Galium (galium; [14]): 70; Plant response rating, Galium (galium; [15]): 90; Plant response rating, Barnyardgrass (barnyardgrass [13]): 0; Plant response rating, Ducksalad (Heteranthera limosa): 85
